16 compounds from ChEMBL document CHEMBL5537126, “Advances in targeting Phosphodiesterase 1: From mechanisms to potential therapeutics” (Eur J Med Chem, 2024) can be followed below.

Each structure is given as a SMILES string. Bounds are passed on as bounds.

Data set [1] in a line: Inhibition of PDE1 (unknown origin). On the set-up: species or system Homo sapiens.
The target of data set [2] is High affinity cGMP-specific 3',5'-cyclic phosphodiesterase 9A (Homo sapiens, UniProt O76083). The data set is described as follows: Inhibition of PDE9A (unknown origin).
The target of data set [3] is cGMP-inhibited 3',5'-cyclic phosphodiesterase 3A (Homo sapiens, UniProt Q14432). Kind of data set: Inhibition of PDE3A (unknown origin).
Data set [4] in a line: Metabolic stability in rat liver microsomes assessed as half life. Format: ADME, Microsome.
Data set [5] concerns the target High affinity 3',5'-cyclic-AMP phosphodiesterase 7A (Homo sapiens, UniProt Q13946). The data set is described as follows: Inhibition of PDE7A (unknown origin).
Data set [6] deals with T1, Dual specificity calcium/calmodulin-dependent 3',5'-cyclic nucleotide phosphodiesterase 1B (Homo sapiens, UniProt Q01064). The data set is described as follows: Inhibition of PDE1B (unknown origin).
Data set [7] has as its target Dual specificity calcium/calmodulin-dependent 3',5'-cyclic nucleotide phosphodiesterase 1C (Homo sapiens, UniProt Q14123). The data set is described as follows: Inhibition of PDE1C (unknown origin) using [3H]-cAMP as substrate incubated for 1 hr by SPA assay.
The nature of data set [8]: Inhibition of PDE9 (unknown origin) by fluorescent based assay. The arrangement: species or system Homo sapiens.
For data set [9], the target named is T2, Dual specificity calcium/calmodulin-dependent 3',5'-cyclic nucleotide phosphodiesterase 1A (Homo sapiens, UniProt P54750). Kind of data set: Inhibition of PDE1A (unknown origin) using [3H]-cAMP as substrate incubated for 1 hr by SPA assay.
In data set [10] the target is cGMP-specific 3',5'-cyclic phosphodiesterase (Homo sapiens, UniProt O76074). The data set is described as follows: Inhibition of PDE5 (unknown origin).
Data set [11] is described as follows: Inhibition of PDE3 (unknown origin) by fluorescent based assay. On the set-up: species or system Homo sapiens.
The target in data set [12] is Phosphodiesterase 4 (Homo sapiens) (UniProt P27815+Q08499+Q07343+Q08493). Kind of data set: Inhibition of PDE4 (unknown origin) at 10 uM relative to control. Format: protein assay.
Data set [13] deals with T1, Dual specificity calcium/calmodulin-dependent 3',5'-cyclic nucleotide phosphodiesterase 1B. The data set is described as follows: Inhibition of PDE1B (unknown origin) using [3H]-cAMP as substrate incubated for 1 hr by SPA assay.
Data set [14] in a line: Binding affinity to PDE1 (unknown origin) assessed as inhibition constant. The arrangement: species or system Homo sapiens.
For data set [15], the target named is cGMP-inhibited 3',5'-cyclic phosphodiesterase 3B (Homo sapiens, UniProt Q13370). The data set is described as follows: Binding affinity to PDE3B (unknown origin) using [3H]cAMP as substrate assessed as inhibition constant incubated for 1 hrs by […] assay. Background: In SPR one partner is held on a chip, and binding of the other changes the refractive index at the surface.

Data set [16] addresses T1, Dual specificity calcium/calmodulin-dependent 3',5'-cyclic nucleotide phosphodiesterase 1B. Kind of data set: Inhibition of PDE1B (unknown origin) using [3H]-cGMP substrate incubated for 15 mins by liquid scintillation counting method.
The target of data set [17] is cGMP-dependent 3',5'-cyclic phosphodiesterase (Homo sapiens, UniProt O00408). The data set is described as follows: Inhibition of full-length recombinant human PDE2A using [3H]-cGMP as substrate incubated for 10 mins by SPA assay.
Data set [18] concerns the target 3',5'-cyclic-AMP phosphodiesterase 4D (Homo sapiens, UniProt Q08499). The data set is described as follows: Inhibition of PDE4D (unknown origin).
Data set [19] addresses High affinity cAMP-specific and IBMX-insensitive 3',5'-cyclic phosphodiesterase 8A (Homo sapiens, UniProt O60658). The data set is described as follows: Inhibition of full-length recombinant human PDE8A using [3H]-cAMP as substrate incubated for 10 mins by SPA assay.
For data set [20], the target named is T2, Dual specificity calcium/calmodulin-dependent 3',5'-cyclic nucleotide phosphodiesterase 1A. Kind of data set: Inhibition of PDE1A3 (unknown origin).

T2 sequence (P54750 whole entry): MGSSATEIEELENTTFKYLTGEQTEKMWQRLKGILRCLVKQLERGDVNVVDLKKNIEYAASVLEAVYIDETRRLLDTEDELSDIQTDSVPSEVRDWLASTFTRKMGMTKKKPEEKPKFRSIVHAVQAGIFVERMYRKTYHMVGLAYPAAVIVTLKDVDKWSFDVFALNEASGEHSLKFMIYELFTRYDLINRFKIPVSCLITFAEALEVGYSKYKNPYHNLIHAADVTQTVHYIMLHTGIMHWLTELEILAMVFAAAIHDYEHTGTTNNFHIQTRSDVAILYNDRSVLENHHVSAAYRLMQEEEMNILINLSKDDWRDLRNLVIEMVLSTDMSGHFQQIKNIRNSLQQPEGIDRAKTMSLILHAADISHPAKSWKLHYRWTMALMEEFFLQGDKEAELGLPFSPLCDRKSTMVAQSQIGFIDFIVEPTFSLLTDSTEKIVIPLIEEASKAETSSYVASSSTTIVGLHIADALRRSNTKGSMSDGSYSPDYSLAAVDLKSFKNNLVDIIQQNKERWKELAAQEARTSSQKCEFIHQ
T1 sequence (Q01064 whole entry): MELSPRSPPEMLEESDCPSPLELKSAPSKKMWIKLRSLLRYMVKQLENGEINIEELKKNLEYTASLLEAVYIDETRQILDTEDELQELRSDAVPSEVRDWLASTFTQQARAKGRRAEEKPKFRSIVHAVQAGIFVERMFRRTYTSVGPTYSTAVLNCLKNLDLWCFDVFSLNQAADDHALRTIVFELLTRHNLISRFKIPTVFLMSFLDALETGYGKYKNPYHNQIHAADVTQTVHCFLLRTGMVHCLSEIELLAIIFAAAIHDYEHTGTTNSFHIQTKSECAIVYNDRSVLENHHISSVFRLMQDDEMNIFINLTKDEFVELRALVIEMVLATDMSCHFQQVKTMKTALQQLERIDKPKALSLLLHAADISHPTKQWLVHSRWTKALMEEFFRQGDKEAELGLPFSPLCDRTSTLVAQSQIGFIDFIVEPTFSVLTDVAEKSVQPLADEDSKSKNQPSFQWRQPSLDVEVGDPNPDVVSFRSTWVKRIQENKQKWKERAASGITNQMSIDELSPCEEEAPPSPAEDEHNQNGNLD
Dual specificity calcium/calmodulin-dependent 3',5'-cyclic nucleotide phosphodiesterase 1C, sequence (Q14123 whole entry): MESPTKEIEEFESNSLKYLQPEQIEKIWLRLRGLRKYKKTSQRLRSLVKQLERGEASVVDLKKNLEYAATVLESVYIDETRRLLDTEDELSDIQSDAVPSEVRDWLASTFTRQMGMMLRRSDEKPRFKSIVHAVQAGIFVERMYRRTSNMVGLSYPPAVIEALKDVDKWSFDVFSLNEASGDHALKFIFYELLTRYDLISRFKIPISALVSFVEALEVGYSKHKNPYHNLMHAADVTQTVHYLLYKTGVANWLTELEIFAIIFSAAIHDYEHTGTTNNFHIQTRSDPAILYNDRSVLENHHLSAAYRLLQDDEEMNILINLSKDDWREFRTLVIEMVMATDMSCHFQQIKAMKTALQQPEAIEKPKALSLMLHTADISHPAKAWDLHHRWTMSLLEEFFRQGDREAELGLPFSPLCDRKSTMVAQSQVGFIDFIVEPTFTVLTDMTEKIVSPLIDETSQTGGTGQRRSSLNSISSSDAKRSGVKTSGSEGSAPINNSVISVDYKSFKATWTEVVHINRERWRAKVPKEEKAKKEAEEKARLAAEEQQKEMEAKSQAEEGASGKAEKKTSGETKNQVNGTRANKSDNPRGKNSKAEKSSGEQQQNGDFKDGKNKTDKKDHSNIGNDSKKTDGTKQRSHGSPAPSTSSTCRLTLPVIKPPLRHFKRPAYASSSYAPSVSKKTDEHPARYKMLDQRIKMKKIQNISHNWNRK
High affinity 3',5'-cyclic-AMP phosphodiesterase 7A, sequence (Q13946 whole entry): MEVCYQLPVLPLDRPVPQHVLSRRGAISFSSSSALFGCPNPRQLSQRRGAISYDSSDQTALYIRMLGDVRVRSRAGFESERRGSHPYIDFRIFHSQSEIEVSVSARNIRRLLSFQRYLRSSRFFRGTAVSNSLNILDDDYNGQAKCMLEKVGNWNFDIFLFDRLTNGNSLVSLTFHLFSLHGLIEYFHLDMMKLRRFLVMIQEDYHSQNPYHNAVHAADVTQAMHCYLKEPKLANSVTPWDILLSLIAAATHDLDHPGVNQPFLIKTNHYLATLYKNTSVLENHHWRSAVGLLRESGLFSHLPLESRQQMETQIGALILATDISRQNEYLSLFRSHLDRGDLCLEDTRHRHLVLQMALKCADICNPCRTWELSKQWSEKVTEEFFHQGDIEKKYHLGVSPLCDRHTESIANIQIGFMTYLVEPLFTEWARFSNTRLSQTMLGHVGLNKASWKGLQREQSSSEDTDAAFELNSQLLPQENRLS
High affinity cGMP-specific 3',5'-cyclic phosphodiesterase 9A, sequence (O76083 whole entry): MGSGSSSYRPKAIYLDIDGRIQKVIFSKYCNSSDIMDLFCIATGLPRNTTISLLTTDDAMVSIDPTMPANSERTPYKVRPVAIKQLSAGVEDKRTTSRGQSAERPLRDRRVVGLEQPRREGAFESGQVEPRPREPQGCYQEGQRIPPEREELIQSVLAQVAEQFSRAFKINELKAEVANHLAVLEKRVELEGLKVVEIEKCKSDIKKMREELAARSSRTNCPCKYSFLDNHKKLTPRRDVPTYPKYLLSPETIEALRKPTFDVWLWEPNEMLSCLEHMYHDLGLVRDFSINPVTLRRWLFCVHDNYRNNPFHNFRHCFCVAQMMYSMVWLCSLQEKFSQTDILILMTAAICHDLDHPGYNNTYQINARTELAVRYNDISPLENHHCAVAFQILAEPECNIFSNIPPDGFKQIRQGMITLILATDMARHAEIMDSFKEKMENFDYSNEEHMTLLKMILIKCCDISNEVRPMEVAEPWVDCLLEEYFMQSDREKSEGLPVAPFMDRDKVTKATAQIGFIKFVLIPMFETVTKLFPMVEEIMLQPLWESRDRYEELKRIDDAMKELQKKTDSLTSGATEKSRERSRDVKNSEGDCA
cGMP-dependent 3',5'-cyclic phosphodiesterase, sequence (O00408 whole entry): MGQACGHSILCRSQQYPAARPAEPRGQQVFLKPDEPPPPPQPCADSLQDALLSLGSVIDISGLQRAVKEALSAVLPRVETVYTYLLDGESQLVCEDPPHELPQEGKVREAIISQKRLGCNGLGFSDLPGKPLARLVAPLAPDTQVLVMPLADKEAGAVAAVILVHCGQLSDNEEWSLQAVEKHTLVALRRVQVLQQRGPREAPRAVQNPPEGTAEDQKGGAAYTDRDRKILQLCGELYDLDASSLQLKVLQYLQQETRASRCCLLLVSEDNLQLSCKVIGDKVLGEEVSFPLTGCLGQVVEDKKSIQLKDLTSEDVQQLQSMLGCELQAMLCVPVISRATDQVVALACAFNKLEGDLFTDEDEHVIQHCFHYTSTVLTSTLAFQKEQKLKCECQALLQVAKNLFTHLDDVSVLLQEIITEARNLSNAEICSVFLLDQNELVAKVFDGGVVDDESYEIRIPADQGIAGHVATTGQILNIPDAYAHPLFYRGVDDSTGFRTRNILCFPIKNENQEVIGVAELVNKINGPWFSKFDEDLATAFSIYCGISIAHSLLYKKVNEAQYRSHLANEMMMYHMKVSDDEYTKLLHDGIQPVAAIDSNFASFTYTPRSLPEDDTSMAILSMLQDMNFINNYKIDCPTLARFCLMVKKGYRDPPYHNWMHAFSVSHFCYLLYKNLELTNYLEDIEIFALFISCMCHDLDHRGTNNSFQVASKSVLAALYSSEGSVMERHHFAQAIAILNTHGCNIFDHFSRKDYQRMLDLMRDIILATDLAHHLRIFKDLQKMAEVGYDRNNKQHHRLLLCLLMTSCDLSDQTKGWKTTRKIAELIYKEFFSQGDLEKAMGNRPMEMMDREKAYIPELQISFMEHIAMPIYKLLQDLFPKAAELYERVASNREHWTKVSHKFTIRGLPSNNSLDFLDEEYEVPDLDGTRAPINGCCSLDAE
High affinity cAMP-specific and IBMX-insensitive 3',5'-cyclic phosphodiesterase 8A, sequence (O60658 whole entry): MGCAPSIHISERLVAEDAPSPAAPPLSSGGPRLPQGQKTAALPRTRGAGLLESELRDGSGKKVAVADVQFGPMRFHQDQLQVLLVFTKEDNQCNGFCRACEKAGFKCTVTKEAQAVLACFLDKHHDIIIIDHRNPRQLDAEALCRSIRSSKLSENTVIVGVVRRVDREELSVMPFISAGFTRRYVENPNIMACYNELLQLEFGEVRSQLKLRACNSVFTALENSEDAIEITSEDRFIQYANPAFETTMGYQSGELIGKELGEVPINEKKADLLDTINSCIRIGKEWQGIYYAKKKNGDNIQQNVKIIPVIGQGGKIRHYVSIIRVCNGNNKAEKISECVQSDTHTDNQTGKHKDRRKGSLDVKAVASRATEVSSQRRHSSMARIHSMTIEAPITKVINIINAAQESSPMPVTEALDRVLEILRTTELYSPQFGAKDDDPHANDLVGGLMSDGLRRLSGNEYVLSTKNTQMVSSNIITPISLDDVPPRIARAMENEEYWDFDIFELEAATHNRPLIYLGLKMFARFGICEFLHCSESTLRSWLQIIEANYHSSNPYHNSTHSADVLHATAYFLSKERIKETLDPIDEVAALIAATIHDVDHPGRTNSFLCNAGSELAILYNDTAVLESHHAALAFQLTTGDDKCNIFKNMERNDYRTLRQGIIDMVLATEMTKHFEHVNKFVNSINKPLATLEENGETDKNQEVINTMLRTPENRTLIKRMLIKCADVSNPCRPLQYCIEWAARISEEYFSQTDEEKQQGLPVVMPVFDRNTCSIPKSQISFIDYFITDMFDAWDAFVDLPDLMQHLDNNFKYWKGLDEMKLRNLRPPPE

As for `CCOC(=O)C1=C[C@]2(CC)CCCN3CCc4c(n1c1ccccc41)[C@@H]32` [VINPOCETINE], the IC50 in [1] was 30000 nM.

As to `C[C@@H](Nc1nc2c(cnn2C(C)(C)C)c(=O)n1Cc1ccc(F)cc1)c1ccc(Cl)cc1`, the concentration for half-maximal inhibition (IC50) is more than 10000 nM in data set [2], more than 10000 nM in data set [3], 2.9 nM in data set [1] and more than 10000 nM in [5]. Besides, the half-life in data set [4] came out at 15.8 min.

Turning to `COc1ccc(Cn2c(=O)n3ncnc3c3cc(CN4CCCOCC4)sc32)cc1`, in [6], the half-inhibitory concentration (IC50) was less than 100 nM.

On to `CCCc1nn(C)c2c(=O)[nH]c(-c3cc(S(=O)(=O)N4CCN(C)CC4)ccc3OCC)nc12`, for which the concentration for half-maximal inhibition (IC50) in [1] turned out to be 396 nM.

Consider `COc1cc2ncnc(N3C[C@@H](Cl)[C@@H]4OC[C@@H](OC)[C@@H]43)c2cc1OC`, for which, in data set [7], the IC50 is 2400 nM.

Take `Cn1c(=O)c2c(ncn2C)n(C)c1=O` [CAFFEINE]: the IC50 in data set [1] was 479000 nM.

Take `C[C@@H](Nc1nc2c(cnn2C2CCCC2)c(=O)[nH]1)c1ccc(Cl)cc1`: the half-maximal inhibitory concentration (IC50) in [1] came to 80 nM; in [8], 58 nM.

On to `COCCOC(=O)C1=C(C)NC(C)=C(C(=O)OC(C)C)C1c1cccc([N+](=O)[O-])c1` (stereo not given) [NIMODIPINE], for which the IC50 in data set [9] is 2000 nM.

On to `COCc1nc2c([nH]1)c(=O)n(C)c(=O)n2CC(C)C`, for which the IC50 amounted to 8000 nM in data set [1], 10000 nM in [10] and 240 nM in data set [11].

As for `COc1cc2ncnc(N3C[C@@H](OO)[C@@H]4OC[C@@H](OC(C)=O)[C@@H]43)c2cc1OC`, the IC50 in data set [7] turned out to be 2200 nM.

Turning to `COc1ccc2c(N3C[C@@H](Cl)[C@@H]4OC[C@@H](OCc5ccccc5)[C@@H]43)ncnc2c1OC`, in data set [12], the inhibition was 27%. In addition, the concentration for half-maximal inhibition (IC50) was 573 nM in data set [7], 4660 nM in data set [9] and 2820 nM in [13].

In [10], `CNc1ncnc2c1ncn2Cc1ccccc1F` [BW-A78U] returned an IC50 of 6500 nM. The inhibition constant Ki worked out at 3700 nM in data set [14] and 35000 nM in [15].

With `Cn1c(=O)c2c(Nc3ccccc3)n(Cc3ccc(-c4cccc(F)n4)cc3)nc2n(CC2CC2)c1=O`, the half-life in data set [4] came to 4.5 min. For the same compound, the IC50 in data set [16] was 3.8 nM.

On to `Cn1c(=O)c2c(Nc3ccc(F)cc3)n(Cc3ccc(S(C)(=O)=O)cc3)nc2n(CC2CC2)c1=O`, for which the IC50 was 8520 nM in data set [17]; 1500 nM in [18]; more than 2500 nM in [5]; more than 10000 nM in data set [19]; 21 nM in data set [16]. For the same compound, the half-life in data set [4] is 28.5 min.

For `CN1C(=O)c2c(nn(Cc3ccc(-c4cccc(F)n4)cc3)c2Nc2ccccc2)N2C1=N[C@@H]1CCC[C@@H]12` [LENRISPODUN PHOSPHATE], the Ki in data set [14] amounted to 0.058 nM.

As for `O=c1c2c(Cc3ccccc3)n[nH]c2c2cccnc2n1-c1ccccc1`, the half-maximal inhibitory concentration (IC50) in [6] turned out to be 790 nM; in data set [20], 32 nM.

In general, IC50 refers to the concentration that inhibits the measured activity by half. By half-life is commonly meant the time in which the quantity being followed falls by half. Broadly, the inhibition is the change of the read-out against control, counted positive when it falls. A low value points to little suppression. As a reminder, the Ki is a measure of affinity in units of concentration, obtained from inhibition or displacement.
